Measurements from the supplement of paper PMC10307832.

Columns and labels:
Assay in all cases: relative viability (nuclei count vs DMSO), 5 days (fraction); higher = more cells survive
A-427 = tested on: A-427
Outline: (§1)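 Lung cancer cell lines, seeded in 1536-well plates, were treated the following day by pin tool with a single drug or with five library-drug doses (not always all listed) in √10 steps on top of a fixed anchor-drug dose. Cells were fixed and nuclei stained in one step after 5 days, and nuclei were counted. Relative viability is the nuclei count for treated wells divided by that for vehicle wells, reported as medians of duplicate plates.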

ABC-1 = tested on: ABC-1
Outline: as §1

EPLC-272H = tested on: EPLC-272H
Outline: as §1

HCC-15 = tested on: HCC-15
Outline: as §1

LC-2-ad = tested on: LC-2-ad
Outline: as §1

LK-2 = tested on: LK-2
Outline: as §1

NCI-H1734 = tested on: NCI-H1734
Outline: as §1

NCI-H1793 = tested on: NCI-H1793
Outline: as §1

NCI-H1915 = tested on: NCI-H1915
Outline: as §1

NCI-H1944 = tested on: NCI-H1944
Outline: as §1

NCI-H2009 = tested on: NCI-H2009
Outline: as §1

NCI-H2023 = tested on: NCI-H2023
Outline: as §1

NCI-H2342 = tested on: NCI-H2342
Outline: as §1

NCI-H2347 = tested on: NCI-H2347
Outline: as §1

NCI-H322M = tested on: NCI-H322M
Outline: as §1

NCI-H358 = tested on: NCI-H358
Outline: as §1

NCI-H441 = tested on: NCI-H441
Outline: as §1

NCI-H522 = tested on: NCI-H522
Outline: as §1

NCI-H647 = tested on: NCI-H647
Outline: as §1

NCI-H838 = tested on: NCI-H838
Outline: as §1

RERF-LC-KJ = tested on: RERF-LC-KJ
Outline: as §1

SW 1573 = tested on: SW 1573
Outline: as §1

UMC-11 = tested on: UMC-11
Outline: as §1

Molecule `Cc1cn(-c2cc(NC(=O)c3ccc(C)c(Nc4nccc(-c5cccnc5)n4)c3)cc(C(F)(F)F)c2)cn1` [Nilotinib] + Cc1cc(Nc2cc(N3CCN(C)CC3)nc(Sc3ccc(NC(=O)C4CC4)cc3)n2)n[nH]1 [Tozasertib] (partner 0.1 µM) has a relative viability (A-427; first compound 0.001 µM) of 0.168, a relative viability (A-427; first compound 0.003162 µM) of 0.184 and a relative viability (A-427; first compound 0.01 µM) of 0.149. For the same molecule, the relative viability (A-427; first compound 0.03162 µM) was 0.167, the relative viability (A-427; first compound 0.1 µM) was 0.168 and the relative viability (ABC-1; first compound 0.001 µM) was 0.175. It also gave a relative viability (ABC-1; first compound 0.003162 µM) of 0.176, a relative viability (ABC-1; first compound 0.01 µM) of 0.168 and a relative viability (ABC-1; first compound 0.03162 µM) of 0.232. The relative viability (ABC-1; first compound 0.1 µM) was 0.237, the relative viability (EPLC-272H; first compound 0.001 µM) was 0.212 and the relative viability (EPLC-272H; first compound 0.003162 µM) was 0.18. It also gave a relative viability (EPLC-272H; first compound 0.01 µM) of 0.251, a relative viability (EPLC-272H; first compound 0.03162 µM) of 0.182 and a relative viability (EPLC-272H; first compound 0.1 µM) of 0.105. For the same molecule, the relative viability (HCC-15; first compound 0.001 µM) was 0.236, the relative viability (HCC-15; first compound 0.003162 µM) was 0.312 and the relative viability (HCC-15; first compound 0.01 µM) was 0.217. For the same molecule, the relative viability (HCC-15; first compound 0.03162 µM) was 0.165, the relative viability (HCC-15; first compound 0.1 µM) was 0.136 and the relative viability (LC-2-ad; first compound 0.001 µM) was 0.371. It also gave a relative viability (LC-2-ad; first compound 0.003162 µM) of 0.337, a relative viability (LC-2-ad; first compound 0.01 µM) of 0.382 and a relative viability (LC-2-ad; first compound 0.03162 µM) of 0.384. It also gave a relative viability (LC-2-ad; first compound 0.1 µM) of 0.403, a relative viability (LK-2; first compound 0.001 µM) of 0.181 and a relative viability (LK-2; first compound 0.003162 µM) of 0.163. The relative viability (LK-2; first compound 0.01 µM) was 0.155, the relative viability (LK-2; first compound 0.03162 µM) was 0.175 and the relative viability (NCI-H1734; first compound 0.001 µM) was 0.251. The relative viability (NCI-H1734; first compound 0.003162 µM) was 0.273, the relative viability (NCI-H1734; first compound 0.01 µM) was 0.324 and the relative viability (NCI-H1734; first compound 0.03162 µM) was 0.231. It also gave a relative viability (NCI-H1734; first compound 0.1 µM) of 0.214, a relative viability (NCI-H1793; first compound 0.001 µM) of 0.248 and a relative viability (NCI-H1793; first compound 0.003162 µM) of 0.298. For the same molecule, the relative viability (NCI-H1793; first compound 0.01 µM) was 0.3, the relative viability (NCI-H1793; first compound 0.03162 µM) was 0.306 and the relative viability (NCI-H1793; first compound 0.1 µM) was 0.296. It also gave a relative viability (NCI-H1915; first compound 0.001 µM) of 0.366, a relative viability (NCI-H1915; first compound 0.003162 µM) of 0.484 and a relative viability (NCI-H1915; first compound 0.01 µM) of 0.457. For the same molecule, the relative viability (NCI-H1915; first compound 0.03162 µM) was 0.32, the relative viability (NCI-H1915; first compound 0.1 µM) was 0.311 and the relative viability (NCI-H1944; first compound 0.001 µM) was 0.248. For the same molecule, the relative viability (NCI-H1944; first compound 0.003162 µM) was 0.3, the relative viability (NCI-H1944; first compound 0.01 µM) was 0.248 and the relative viability (NCI-H1944; first compound 0.03162 µM) was 0.197. The relative viability (NCI-H2009; first compound 0.001 µM) was 0.622, the relative viability (NCI-H2009; first compound 0.003162 µM) was 0.853 and the relative viability (NCI-H2009; first compound 0.01 µM) was 0.577. It also gave a relative viability (NCI-H2009; first compound 0.03162 µM) of 0.372, a relative viability (NCI-H2009; first compound 0.1 µM) of 0.383 and a relative viability (NCI-H2023; first compound 0.001 µM) of 0.192. The relative viability (NCI-H2023; first compound 0.003162 µM) was 0.225, the relative viability (NCI-H2023; first compound 0.01 µM) was 0.224 and the relative viability (NCI-H2023; first compound 0.03162 µM) was 0.159. It also gave a relative viability (NCI-H2023; first compound 0.1 µM) of 0.183, a relative viability (NCI-H2342; first compound 0.001 µM) of 0.501 and a relative viability (NCI-H2342; first compound 0.003162 µM) of 0.561. For the same molecule, the relative viability (NCI-H2342; first compound 0.01 µM) was 0.45, the relative viability (NCI-H2342; first compound 0.03162 µM) was 0.494 and the relative viability (NCI-H2342; first compound 0.1 µM) was 0.603. For the same molecule, the relative viability (NCI-H2347; first compound 0.001 µM) was 0.451, the relative viability (NCI-H2347; first compound 0.003162 µM) was 0.463 and the relative viability (NCI-H2347; first compound 0.01 µM) was 0.489. The relative viability (NCI-H2347; first compound 0.03162 µM) was 0.476, the relative viability (NCI-H2347; first compound 0.1 µM) was 0.3 and the relative viability (NCI-H322M; first compound 0.001 µM) was 0.471. It also gave a relative viability (NCI-H322M; first compound 0.003162 µM) of 0.427, a relative viability (NCI-H322M; first compound 0.01 µM) of 0.492 and a relative viability (NCI-H322M; first compound 0.03162 µM) of 0.456. The relative viability (NCI-H322M; first compound 0.1 µM) was 0.548, the relative viability (NCI-H358; first compound 0.001 µM) was 0.0908 and the relative viability (NCI-H358; first compound 0.003162 µM) was 0.0985. It also gave a relative viability (NCI-H358; first compound 0.01 µM) of 0.0881, a relative viability (NCI-H358; first compound 0.03162 µM) of 0.101 and a relative viability (NCI-H358; first compound 0.1 µM) of 0.116. The relative viability (NCI-H441; first compound 0.001 µM) was 0.448, the relative viability (NCI-H441; first compound 0.003162 µM) was 0.482 and the relative viability (NCI-H441; first compound 0.01 µM) was 0.44. The relative viability (NCI-H441; first compound 0.03162 µM) was 0.429, the relative viability (NCI-H441; first compound 0.1 µM) was 0.37 and the relative viability (NCI-H522; first compound 0.001 µM) was 0.484. The relative viability (NCI-H522; first compound 0.003162 µM) was 0.605, the relative viability (NCI-H522; first compound 0.01 µM) was 0.521 and the relative viability (NCI-H522; first compound 0.03162 µM) was 0.558. For the same molecule, the relative viability (NCI-H522; first compound 0.1 µM) was 0.619, the relative viability (NCI-H647; first compound 0.001 µM) was 0.147 and the relative viability (NCI-H647; first compound 0.003162 µM) was 0.227. It also gave a relative viability (NCI-H647; first compound 0.01 µM) of 0.164, a relative viability (NCI-H647; first compound 0.03162 µM) of 0.143 and a relative viability (NCI-H647; first compound 0.1 µM) of 0.139. For the same molecule, the relative viability (NCI-H838; first compound 0.001 µM) was 0.219, the relative viability (NCI-H838; first compound 0.003162 µM) was 0.298 and the relative viability (NCI-H838; first compound 0.01 µM) was 0.294. For the same molecule, the relative viability (NCI-H838; first compound 0.03162 µM) was 0.228, the relative viability (NCI-H838; first compound 0.1 µM) was 0.221 and the relative viability (RERF-LC-KJ; first compound 0.001 µM) was 0.335. The relative viability (RERF-LC-KJ; first compound 0.003162 µM) was 0.416, the relative viability (RERF-LC-KJ; first compound 0.01 µM) was 0.305 and the relative viability (RERF-LC-KJ; first compound 0.03162 µM) was 0.349. For the same molecule, the relative viability (RERF-LC-KJ; first compound 0.1 µM) was 0.302, the relative viability (SW 1573; first compound 0.001 µM) was 0.194 and the relative viability (SW 1573; first compound 0.003162 µM) was 0.165. It also gave a relative viability (SW 1573; first compound 0.01 µM) of 0.211, a relative viability (SW 1573; first compound 0.03162 µM) of 0.173 and a relative viability (SW 1573; first compound 0.1 µM) of 0.15. For the same molecule, the relative viability (UMC-11; first compound 0.001 µM) was 0.191, the relative viability (UMC-11; first compound 0.003162 µM) was 0.19 and the relative viability (UMC-11; first compound 0.01 µM) was 0.179. For the same molecule, the relative viability (UMC-11; first compound 0.03162 µM) was 0.166 and the relative viability (UMC-11; first compound 0.1 µM) was 0.134.
